Measurements from patent US20150098983A1, “Methods and Compositions for Treating Withdrawal Syndromes Using Non-Sedative Dexmedetomidine Transdermal Compositions” (Teikoku Pharma USA, Inc., priority 2013, published 2015).
Like-named read-outs stand apart in the source and are kept apart here.

- solubility of dexmedetomidine (in Duro-Tak 87-2979): less than 2%
- solubility of dexmedetomidine (in Duro-Tak 387/87-2353 (acid functionalized acrylate adhesive)): 10-15%
- solubility of dexmedetomidine (in hydroxyl functionalized acrylate polymer): less than 1%
- solubility of dexmedetomidine (in lauryl lactate): 5 to 10%
- solubility of dexmedetomidine (in levulinic acid): ~60%
- solubility of dexmedetomidine (in oleic acid): ~40%
- solubility of dexmedetomidine (in propylene glycolmonolaurate): 5 to 10%
SMILES: Cc1cccc([C@H](C)c2cnc[nH]2)c1C [Dexmedetomidine]
